Measurements taken from patent US9169243B2, “Apoptosis signal-regulating kinase inhibitors” (Gilead Sciences, Inc., priority 2013, dated 2015).

target: recombinant human ASK1 kinase (Homo sapiens (Human), UniProt Q99683); test: TR-FRET ASK1 (Apoptosis Signal-Regulating Kinase 1) kinase assay; type: biochemical; conditions: TR-FRET/HTRF, 4 nM ASK1, 1 μM STK3 peptide substrate, 100 μM ATP, 3 hr; average of quadruplicate determination
Excerpt: I. TR-FRET ASK1 (Apoptosis Signal-Regulating Kinase 1) Kinase Assay
To evaluate the inhibitory activity of compounds of the invention against ASK1 (Apoptosis Signal-regulating Kinase 1) kinase, its activity was examined using a TR-FRET ASK1 kinase assay which determined the amount of phosphate transferred to a peptide substrate from ATP.
Dephosphorylated recombinant human ASK1 kinase was from Gilead Sciences. Small molecule kinase inhibitor staurosporine (Catalogue #S6942) and dithiothreitol (DTT, catalogue #43815-5G) were obtained from Sigma Chemicals (St. Louis, Mo.). ATP (catalogue #7724) was from Affymetrix (Santa Clara, Calif.) and test compounds were from Gilead Sciences. HTRF KinEASE™-STK S3 kit was obtained from Cisbio (Bedford, Mass.). All other reagents were of the highest grade commercially available.
The assay measures the phosphorylation level of a biotinylated peptide substrate by the ASK1 kinase using HTRF detection. This is a competitive, time-resolved fluorescence resonance energy transfer (TR-FRET) immunoassay, based on HTRF® KinEASE™-STK manual from Cisbio. Test compound, 1 μM STK3 peptide substrate, 4 nM of ASK1 kinase were incubated with 10 mM MOP buffer, pH. 7.0 containing 10 mM Mg-acetate, 0.025% NP-40, 1 mM DTT, 0.05% BSA and 1.5% glycerol for 30 minutes then 100 μM ATP was added to start the kinase reaction and incubated for 3 hr. Peptide antibody labeled with 1×Eu^3+ Cryptate buffer containing 10 mM EDTA and 125 nM Streptavidin XL665 were added to stop the reaction and phosphorylated peptide substrate was detected using Envision 2103 Multilabeled reader from PerkinElmer. The fluorescence was measured at 615 nm (Cryptate) and 665 nm (XL665) and a ratio of 665 nm/615 nm was calculated for each well. The resulting TR-FRET level (a ratio of 665 nm/615 nm) was proportional to the phosphorylation level. Under these assay conditions, the degree of phosphorylation of peptide substrate was linear with time and concentration for the enzyme. The assay system yielded consistent results with regard to Km and specific activities for the enzyme. For inhibition experiments (IC50 values), activities were performed with constant concentrations of ATP, peptide and several fixed concentrations of inhibitors. Staurosporine, the nonselective kinase inhibitor, was used as the positive control. All enzyme activity data are reported as an average of quadruplicate determination.
The IC50 values were calculated following equation: y=Range/{1+(x/IC50)^s}+Background where x and y represent the concentration of inhibitors and enzyme activity, respectively. Enzyme activity is expressed as the amount of Phosphate incorporated into substrate peptide from ATP. Range is the maximum y range (no inhibitor, DMSO control) and s is a slope factor.

Chain of recombinant human ASK1 kinase (Q99683 whole entry): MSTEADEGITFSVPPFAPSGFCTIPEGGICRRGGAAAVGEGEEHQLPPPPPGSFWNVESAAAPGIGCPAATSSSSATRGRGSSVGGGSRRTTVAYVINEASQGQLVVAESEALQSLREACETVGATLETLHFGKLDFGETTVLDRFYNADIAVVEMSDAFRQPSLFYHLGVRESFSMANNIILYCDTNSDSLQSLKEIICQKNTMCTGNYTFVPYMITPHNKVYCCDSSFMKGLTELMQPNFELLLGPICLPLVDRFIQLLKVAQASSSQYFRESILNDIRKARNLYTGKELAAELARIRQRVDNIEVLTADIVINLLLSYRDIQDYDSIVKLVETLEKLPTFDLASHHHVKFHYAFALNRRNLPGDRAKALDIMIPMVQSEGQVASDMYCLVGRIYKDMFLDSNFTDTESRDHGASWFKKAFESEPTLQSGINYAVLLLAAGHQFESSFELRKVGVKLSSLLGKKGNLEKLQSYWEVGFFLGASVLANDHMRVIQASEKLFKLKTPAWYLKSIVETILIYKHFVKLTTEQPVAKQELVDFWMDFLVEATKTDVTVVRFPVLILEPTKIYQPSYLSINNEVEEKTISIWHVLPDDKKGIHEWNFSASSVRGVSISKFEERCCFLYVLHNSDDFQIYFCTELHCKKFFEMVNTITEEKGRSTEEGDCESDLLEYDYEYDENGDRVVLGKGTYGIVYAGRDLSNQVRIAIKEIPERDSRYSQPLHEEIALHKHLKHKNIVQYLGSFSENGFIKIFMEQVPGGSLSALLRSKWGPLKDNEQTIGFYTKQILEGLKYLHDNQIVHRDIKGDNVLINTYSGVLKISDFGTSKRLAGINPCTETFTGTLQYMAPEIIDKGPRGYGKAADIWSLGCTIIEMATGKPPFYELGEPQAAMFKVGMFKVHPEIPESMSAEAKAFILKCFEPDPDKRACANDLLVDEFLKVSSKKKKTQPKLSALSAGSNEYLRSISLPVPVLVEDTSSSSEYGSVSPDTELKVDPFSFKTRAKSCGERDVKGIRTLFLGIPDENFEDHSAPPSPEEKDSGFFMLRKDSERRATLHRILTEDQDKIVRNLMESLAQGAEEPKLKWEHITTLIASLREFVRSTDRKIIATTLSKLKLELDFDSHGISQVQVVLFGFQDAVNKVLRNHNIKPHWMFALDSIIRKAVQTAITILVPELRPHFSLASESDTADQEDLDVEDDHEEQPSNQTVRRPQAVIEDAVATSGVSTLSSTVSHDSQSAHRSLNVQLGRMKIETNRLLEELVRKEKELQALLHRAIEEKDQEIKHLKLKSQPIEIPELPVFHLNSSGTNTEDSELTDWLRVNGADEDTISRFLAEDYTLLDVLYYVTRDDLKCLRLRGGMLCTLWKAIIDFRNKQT

| SMILES | IC50 [nM] |
| --- | --- |
| O=C(Nc1csc(-c2nncn2C2CC2)n1)c1cc(-n2cnc(C3CC3)c2)c(N2CC(C(F)F)C2)cn1 [Compound 1, 4-(4-cyclopropylimidazol-1-yl)-N-[2-(4-cyclopropyl-1,2,4-triazol-3-yl)-1,3-thiazol-4-yl]-5-[3-(difluoromethyl)azetidin-1-yl]pyridine-2-carboxamide] | 2.2 |
| N#CC1CN(c2cnc(C(=O)Nc3csc(-c4nncn4C4CC4)n3)cc2-n2cnc(C3CC3)c2)C1 [Compound 2, 5-(3-cyanoazetidin-1-yl)-4-(4-cyclopropylimidazol-1-yl)-N-[2-(4-cyclopropyl-1,2,4-triazol-3-yl)-1,3-thiazol-4-yl]pyridine-2-carboxamide] | 0.9 |
| CC1(C#N)CN(c2cnc(C(=O)Nc3csc(-c4nncn4C4CC4)n3)cc2-n2cnc(C3CC3)c2)C1 [Compound 3, 5-(3-cyano-3-methylazetidin-1-yl)-4-(4-cyclopropyiimidazol-1-yl)-N-[2-(4-cyclopropyl-1,2,4-triazol-3-yl)-1,3-thiazol-4-yl]pyridine-2-carboxamide] | 1.9 |
| COC1(C)CN(c2cnc(C(=O)Nc3csc(-c4nncn4C4CC4)n3)cc2-n2cnc(C3CC3)c2)C1 [Compound 4, 4-(4-cyclopropylimidazol-1-yl)-N-[2-(4-cyclopropyl-1,2,4-triazol-3-yl)-1,3-thiazol-4-yl]-5-(3-methoxy-3-methylazetidin-1-yl)pyridine-2-carboxamide] | 1.8 |
| O=C(Nc1csc(-c2nncn2C2CC2)n1)c1cc(-n2cnc(C3CC3)c2)c(N2CC(F)(F)C2)cn1 [Compound 5, 4-(4-cyclopropylimidazol-1-yl)-N-[2-(4-cyclopropyl-1,2,4-triazol-3-yl)-1,3-thiazol-4-yl]-5-(3,3-difluoroazetidin-1-yl)pyridine-2-carboxamide] | 2.8 |
| COC1CCN(c2cnc(C(=O)Nc3csc(-c4nncn4C4CC4)n3)cc2-n2cnc(C3CC3)c2)C1 (stereo not shown) [Compound 6, 4-(4-cyclopropylimidazol-1-yl)-N-[2-(4-cyclopropyl-1,2,4-triazol-3-yl)-1,3-thiazol-4-yl]-5-(3-methoxypyrrolidin-1-yl)pyridine-2-carboxamide] | 2.8 |
| N#CC1CCN(c2cnc(C(=O)Nc3csc(-c4nncn4C4CC4)n3)cc2-n2cnc(C3CC3)c2)CC1 [Compound 9, 5-(4-cyanopiperidin-1-yl)-4-(4-cyclopropylimidazol-1-yl)-N-[2-(4-cyclopropyl-1,2,4-triazol-3-yl)-1,3-thiazol-4-yl]pyridine-2-carboxamide] | 2.2 |
| COC1CCN(c2cnc(C(=O)Nc3csc(-c4nncn4C4CC4)n3)cc2-n2cnc(C3CC3)c2)CC1 [Compound 10, 4-(4-cyclopropylimidazol-1-yl)-N-[2-(4-cyclopropyl-1,2,4-triazol-3-yl)-1,3-thiazol-4-yl]-5-(4-methoxypiperidin-1-yl)pyridine-2-carboxamide] | 3.2 |
| CNC(=O)C1CCN(c2cnc(C(=O)Nc3csc(-c4nncn4C4CC4)n3)cc2-n2cnc(C3CC3)c2)CC1 [Compound 11, 4-(4-cyclopropylimidazol-1-yl)-N-[2-(4-cyclopropyl-1,2,4-triazol-3-yl)-1,3-thiazol-4-yl]-5-[4-(methylcarbamoyl)piperidin-1-yl]pyridine-2-carboxamide] | 0.4 |
| COC1(C)CCN(c2cnc(C(=O)Nc3csc(-c4nncn4C4CC4)n3)cc2-n2cnc(C3CC3)c2)CC1 [Compound 12, 4-(4-cyclopropylimidazol-1-yl)-N-[2-(4-cyclopropyl-1,2,4-triazol-3-yl)-1,3-thiazol-4-yl]-5-(4-methoxy-4-methylpiperidin-1-yI)pyridine-2-carboxamide] | 14.2 |
| O=C(Nc1csc(-c2nncn2C2CC2)n1)c1cc(-n2cnc(C3CC3)c2)c(N2CCN(CC(F)(F)F)CC2)cn1 [Compound 13, 4-(4-cyclopropylimidazol-1-yl)-N-[2-(4-cyclopropyl-1,2,4-triazol-3-yl)-1,3-thiazol-4-yl]-5-[4-(2,2,2-trifluoroethyl)piperazin-1-yl]pyridine-2-carboxamide] | 2.9 |
| O=C(Nc1csc(-c2nncn2C2CC2)n1)c1cc(-n2cnc(C3CC3)c2)c(N2CCN(C3CC3)CC2)cn1 [Compound 19, 4-(4-cyclopropylimidazol-1-yl)-5-(4-cyclopropylpiperazin-1-yl)-N-[2-(4-cyclopropyl-1,2,4-triazol-3-yl)-1,3-thiazol-4-yl]pyridine-2-carboxamide] | 2.8 |
| O=C(Nc1csc(-c2nncn2C2CC2)n1)c1cc(-n2cnc(C3CC3)c2)c(N2CC3(CCOCC3)C2)cn1 [Compound 22, 4-(4-cyclopropylimidazol-1-yl)-N-[2-(4-cyclopropyl-1,2,4-triazol-3-yl)-1,3-thiazol-4-yl]-5-(7-oxa-2-azaspiro[3.5]nonan-2-yl)pyridine-2-carboxamide] | 4.5 |
| COCC1CN(c2cnc(C(=O)Nc3csc(-c4nncn4[C@@H](C)C(F)(F)F)n3)cc2-n2cnc(C3CC3)c2)C1 [Compound 23, (S)-4-(4-cyclopropyl-1H-imidazol-1-yl)-5-(3-(methoxymethyl)azetidin-1-yl)-N-(2-(4-(1,1,1-trifluoropropan-2-yl)-4H-1,2,4-triazol-3-yl)thiazol-4-yl)picolinamide] | 2 |

The remaining compounds from weak to strong by IC50, led by results:

| IC50 [nM] | SMILES |
| --- | --- |
| 3.8 | O=C(Nc1csc(-c2nncn2C2CC2)n1)c1cc(-n2cnc(C3CC3)c2)c(N2CCCOCC2)cn1 [Compound 14, 4-(4-cyclopropylimidazol-1-yl)-N-[2-(4-cyclopropyl-1,2,4-triazol-3-yl)-1,3-thiazol-4-yl]-5-(1,4-oxazepan-4-yl)pyridine-2-carboxamide] |
| 3.2 | O=C(Nc1csc(-c2nncn2C2CC2)n1)c1cc(-n2cnc(C3CC3)c2)c(N2CCC(C(F)(F)F)CC2)cn1 [Compound 7, 4-(4-cyclopropylimidazol-1-yl)-N-[2-(4-cyclopropyl-1,2,4-triazol-3-yl)-1,3-thiazol-4-yl]-5-[4-(trifluoromethyl)piperidin-1-yl]pyridine-2-carboxamide] |
| 2.7 | O=C(Nc1csc(-c2nncn2C2CC2)n1)c1cc(-n2cnc(C3CC3)c2)c(N2CCN3C(=O)OCC3C2)cn1 (stereo not shown) [Compound 16, 4-(4-cyclopropylimidazol-1-yl)-N-[2-(4-cyclopropyl-l,2,4-triazol-3-yl)-1,3-thiazol-4-yl]-5-(3-oxo-5,6,8,8a-tetrahydro-1H-[1,3]oxazolo[3,4-a]pyrazin-7-yl)pyridine-2-carboxamide] |
| 2.5 | O=C(Nc1csc(-c2nncn2C2CC2)n1)c1cc(-n2cnc(C3CC3)c2)c(N2CCC(F)CC2)cn1 [Compound 8, 4-(4-cyclopropylimidazol-1-yl)-N-[2-(4-cyclopropyl-1,2,4-triazol-3-yl)-1,3-thiazol-4-yl]-5-(4-fluoropiperidin-1-yl)pyridine-2-carboxamide] |
| 2.5 | O=C(Nc1csc(-c2nncn2C2CC2)n1)c1cc(-n2cnc(C3CC3)c2)c(N2CCN(CC3CC3)CC2)cn1 [Compound 20, 4-(4-cyclopropylimidazol-1-yl)-5-[4-(cyclopropylmethyl)piperazin-1-yl]-N-[2-(4-cyclopropyl-1,2,4-triazol-3-yl)-1,3-thiazol-4-yl]pyridine-2-carboxamide] |
| 2.3 | O=C(Nc1csc(-c2nncn2C2CC2)n1)c1cc(-n2cnc(C3CC3)c2)c(N2CC(N3CCOCC3)C2)cn1 [Compound 18, 4-(4-cyclopropylimidazol-1-yl)-N-[2-(4-cyclopropyl-1,2,4-triazol-3-yl)-1,3-thiazol-4-yl]-5-(3-morpholin-4-ylazetidin-1-yl)pyridine-2-carboxamide] |
| 1.9 | O=C(Nc1csc(-c2nncn2C2CC2)n1)c1cc(-n2cnc(C3CC3)c2)c(N2CCC3(CC2)COC3)cn1 [Compound 21, 4-(4-cyclopropylimidazol-1-yl)-N-[2-(4-cyclopropyl-1,2,4-triazol-3-yl)-1,3-thiazol-4-yl]-5-(2-oxa-7-azaspiro[3.5]nonan-7-y!)pyridine-2-carboxamide] |
| 1.1 | O=C(Nc1csc(-c2nncn2C2CC2)n1)c1cc(-n2cnc(C3CC3)c2)c(N2CC3CC3C2)cn1 (stereo not shown) [Compound 17, 5-(3-azabicyclo[3.1.0]hexan-3-yl)-4-(4-cyclopropylimidazol-1-yl)-N-[2-(4-cyclopropyl-1,2,4-triazol-3-yl)-3,3-thiazol-4-yl]pyridine-2-carboxamide] |
